Patent US20230398130A1, “METHODS AND COMPOSITIONS FOR DIFFERENTIATING STEM CELLS” (Massachusetts Institute of Technology, priority 2020, published 2023)

Experiments:
lysozyme (LYZ) = experiment: Western blotting of lysozyme in 3D-cultured intestinal organoids; format: cell-based, murine; conditions: organoids cultured 6 days in ENR+CV, ENR+CD or ENR
Excerpt: Western blotting. ISC-enriched organoids cultured in 3D Matrigel with ENRCV media were passaged to 24-well plate in 3D Matrigel with ENRCV. At day zero, media were replaced to ENR or ENRCD with or without indicated compounds, and media were replaced every other day. At day six, cells were harvested from Matrigel by mechanical disruption and suspended in basal media. Cell pellets were lysed with Pierce© IP lysis buffer (ThermoFisher, 87787) containing Halt™ Protease Inhibitor Cocktail, EDTA-Free (ThermoFisher, 87785) after 3-minute centrifuge at 300×g at 4° C. Cell extracts were resolved by NuPAGE© SDS-PAGE Gel system (ThermoFisher) and electroblotted onto polyvinylidene difluoride membranes using Criterion™ Blotter (Biorad). The membranes were blocked with 2% Blotting-Grade Blocker (Biorad, 1706404) in TBS-T (50 mM Tris-HCl, 150 mM NaCl, and 0.1% Tween 20, pH 8.0) and then probed with appropriate antibodies. Detection was performed using ECL Select™ Western Blotting Detection Reagent (Amersham, 45-000-999) and ImageQuant LAS4000 (GE Healthcare).
Western blotting. Organoid-containing gel was homogenized in basal medium and centrifuged at 300 rcf for 3 min. Organoid pellet was lysed with ice-cold Pierce IP Lysis Buffer (Thermo Fisher Scientific, #87787) containing Halt Protease Inhibitor Cocktail, EDTA-Free (Thermo Fisher Scientific, #87785) and incubated on ice for 20 min. The lysate was centrifuged at 17,000 rcf for 10 min, and the supernatant was combined with NuPAGE LDS Sample Buffer (Thermo Fisher Scientific, NP0007). Protein concentration was determined by Pierce 660 nm Protein Assay (Thermo Fisher Scientific, #22660) and normalized to the lowest concentration among each sample set. […] Chemiluminescent signals were detected by LAS4000 (GE Healthcare) using Amersham ECL Select Western Blotting Detection Reagent (GE Healthcare, #45-000-999), and total protein signals were obtained by Odyssey Imaging System (LI-COR Biosciences) using REVERT Total Protein Stain Kit (LI-COR Biosciences, #926-11010).

ISC-enriched organoids [1] = experiment: Primary screen, 384-well 2.5-D organoid differentiation (ENR+CD, 6 days, Target Selective Inhibitor Library, vs whole-plate median): ATP (CellTiter-Glo 3D, CTG); conditions: for Z.CTG / SSMD.CTG: primary screen; for Z.CTG: standard z score; for SSMD.CTG: strictly standardized mean difference
ISC-enriched organoids [2] = experiment: Primary screen, 384-well 2.5-D organoid differentiation (ENR+CD, 6 days): basal lysozyme secretion (LYZ.NS); format: cell-based, murine; conditions: strictly standardized mean difference, primary screen
Excerpt: High-throughput screening.

Paneth cells = experiment: Flow cytometry of 3D-cultured intestinal organoids (ENR+CD, 6 days): Paneth cell fraction (lysozyme-positive, CD24-mid); format: cell-based, murine
Description: Flow cytometry analysis (3D culture). ISC-enriched organoids cultured in 3D Matrigel with ENRCV media were passaged to 24-well plate in 3D Matrigel with ENRCV. At day zero, media were replaced to ENRCD with or without indicated compounds, and media were replaced every other day. […] Flow cytometry was performed using an LSR Fortessa (BD; Koch Institute Flow Cytometry Core at MIT). The data were analyzed using FlowJo v10 software.
Single live cells were selected by several gating strategies and Paneth cells were identified as lysozyme-high, CD24-mid, side scatter-high (SSC-high) (FIG. 27E). […] To evaluate whether the culture media supplements C and D may alter the effects of the 6 hits, Applicants also performed lysozyme assay in the canonical ENR culture condition in 3-D (because Paneth cells exist in an immature state within ENR, Applicants were unable to robustly quantify Paneth cell number via flow cytometry).
(§1) Flow cytometry. ISC-enriched organoids in 3D Matrigel culture were passaged to a 48-well plate and induced differentiation for 6 days by ENR+CD media containing DMSO or each drug indicated in the figures. DMSO- or drug-containing media were changed every other day. […] After vigorous pipetting and incubation at 37° C. for 15 min, the cell solution was diluted twice with basal media and centrifuged at 300 rcf for 3 min. […] The cell solution was centrifuged again at 300 rcf for 3 min at 4° C. to pellet the cells. […] Cells were centrifuged again for 3 min at 300 rcf and blocked with staining buffer (FACS buffer containing 0.5% Tween20 (Sigma, P2287)) for 15 min at RT in the dark. […] Flow cytometry was performed using an LSR Fortessa (BD; Koch Institute Flow Cytometry Core at MIT). Flow cytometry data were analyzed using FlowJo X v10.6.1 software.
Live Paneth cells were identified as LYZ-high, CD24-mid, side scatter-high (SSC-high) (FIG. 50F).
as §1, with “organoids in 3-D Matrigel culture” for “organoids in 3D Matrigel culture”, “to a 24- or 48-well plate” for “to a 48-well plate”

[3] = 1st of the 4 dose lines of the treatment (dose not given)
[4] = 2nd of the 4 dose lines of the treatment (dose not given)
[5] = 3rd of the 4 dose lines of the treatment (dose not given)
[6] = 4th of the 4 dose lines of the treatment (dose not given)

O=C(/C=C\n1cnc(-c2cc(C(F)(F)F)cc(C(F)(F)F)c2)n1)NNc1cnccn1 [KPT-330]
LYZ abundance per unit protein (Western blotting) (lysozyme (LYZ)): appreciably increase LYZ abundance | Z.CTG (ISC-enriched organoids [1]; Dose 0.08 uM): 0.503 | Z.CTG (ISC-enriched organoids [1]; Dose 0.40 uM): −1.569 | Z.CTG (ISC-enriched organoids [1]; Dose 2.00 uM): −2.135 | Z.CTG (ISC-enriched organoids [1]; Dose 10.00 uM): −4.480 | toxicity at concentrations higher than 160 nM (ISC-enriched organoids [1]; primary screening): higher concentrations proved toxic | SSMD.CTG (ISC-enriched organoids [1]; [3]): 0.686 | SSMD.CTG (ISC-enriched organoids [1]; [4]): −0.942 | SSMD.CTG (ISC-enriched organoids [1]; [5]): −2.044 | SSMD.CTG (ISC-enriched organoids [1]; [6]): −2.988 | SSMD.LYZ.NS (ISC-enriched organoids [2]; [3]): 1.021 | SSMD.LYZ.NS (ISC-enriched organoids [2]; [4]): −1.822 | SSMD.LYZ.NS (ISC-enriched organoids [2]; [5]): −1.556 | SSMD.LYZ.NS (ISC-enriched organoids [2]; [6]): −1.714 | enrichment in mature Paneth cells at day 6 (Paneth cells; KPT-330 treatment day 0-2 of 6-day ENR+CD differentiation): greatest enrichment in mature Paneth cells | enrichment in mature Paneth cells at day 6 (Paneth cells; KPT-330 treatment day 2-4): moderate enrichment | enrichment in mature Paneth cells at day 6 (flow cytometry) (Paneth cells; KPT-330 treatment day 4-6): no different than untreated | mature Paneth cell population within organoids (Paneth cells; hit compound at most potent dose from 2.5-D screening, ENR+CD 6 days, 3-D culture, vs control): significantly enhanced the mature Paneth cell population
